The results in this text go back to article PMC5218480 (PLoS ONE, 2017).

In this test the test system is MV-4-11 cells. Briefly: Gene expression microarray analysis (Affymetrix PrimeView) and GSEA. The class given is cell-based, human. More on the design: RFU PODN (11730768_x_at) / Fold change /veh PODN (11730768_x_at) / RFU LINC00158 (11744669_a_at) / Fold change /veh LINC00158 (11744669_a_at) / RFU DUSP10 (11751237_a_at) / Fold change /veh DUSP10 (11751237_a_at) / RFU ID3 (11757404_x_at) / Fold change /veh ID3 (11757404_x_at) / RFU PLEKHG5 (11737974_s_at) / Fold change /veh PLEKHG5 (11737974_s_at) / RFU LRRC4B (11730491_at) / Fold change /veh LRRC4B (11730491_at) / RFU GIMAP4 (11747438_a_at) / Fold change /veh GIMAP4 (11747438_a_at) / RFU KRT8 (11758183_x_at) / Fold change /veh KRT8 (11758183_x_at) / RFU CNN1 (11734310_a_at) / Fold change /veh CNN1 (11734310_a_at) / RFU VPS37D (11726825_at) / Fold change /veh VPS37D (11726825_at) / RFU C10orf10 (11716522_x_at) / Fold change /veh C10orf10 (11716522_x_at) / RFU KIR2DL2 /// KIR2DL4 /// KIR2DL5A /// KIR2DL5B /// KIR2DS1 /// KIR2DS2 /// KIR2DS3 /// KIR2DS4 /// KIR3DL3 /// KIR3DL3 /// KIR3DS1 (11738374_at) / Fold change /veh KIR2DL2 /// KIR2DL4 /// KIR2DL5A /// KIR2DL5B /// KIR2DS1 /// KIR2DS2 /// KIR2DS3 /// KIR2DS4 /// KIR3DL3 /// KIR3DL3 /// KIR3DS1 (11738374_at) / RFU C1QL1 (11718748_at) / Fold change /veh C1QL1 (11718748_at) / RFU TMPRSS4 (11747572_a_at) / Fold change /veh TMPRSS4 (11747572_a_at) / RFU HAMP (11756126_x_at) / Fold change /veh HAMP (11756126_x_at) / RFU RNFT2 (11725882_a_at) / Fold change /veh RNFT2 (11725882_a_at) / RFU NR4A2 (11747474_a_at) / Fold change /veh NR4A2 (11747474_a_at) / RFU ABCC12 (11746883_a_at) / Fold change /veh ABCC12 (11746883_a_at) / RFU TMEM136 (11760407_x_at) / Fold change /veh TMEM136 (11760407_x_at) / RFU CLDN22 /// WWC2 (11732394_at) / Fold change /veh CLDN22 /// WWC2 (11732394_at) / RFU HLA-DPB1 (11760878_x_at) / Fold change /veh HLA-DPB1 (11760878_x_at) / RFU SPINT1 (11716480_a_at) / Fold change /veh SPINT1 (11716480_a_at) / RFU GAP43 (11754022_s_at) / Fold change /veh GAP43 (11754022_s_at) / RFU A4GNT (11735810_at) / Fold change /veh A4GNT (11735810_at) / RFU PRB3 (11715151_x_at) / Fold change /veh PRB3 (11715151_x_at) / RFU TUBB4B (11761932_at) / Fold change /veh TUBB4B (11761932_at) / RFU CAPN14 (11732068_a_at) / Fold change /veh CAPN14 (11732068_a_at) / RFU TMCC2 (11721928_a_at) / Fold change /veh TMCC2 (11721928_a_at) / RFU IRGQ (11745062_a_at) / Fold change /veh IRGQ (11745062_a_at) / RFU FAM174B (11720279_a_at) / Fold change /veh FAM174B (11720279_a_at) / RFU TMPRSS4 (11748680_a_at) / Fold change /veh TMPRSS4 (11748680_a_at) / RFU FAM212B (11763350_a_at) / Fold change /veh FAM212B (11763350_a_at) / RFU PLEKHG5 (11743358_a_at) / Fold change /veh PLEKHG5 (11743358_a_at) / RFU ZSCAN30 (11745921_a_at) / Fold change /veh ZSCAN30 (11745921_a_at) / RFU CMKLR1 (11741424_a_at) / Fold change /veh CMKLR1 (11741424_a_at) / RFU LOC101060620 /// MAPK8IP1 (11723275_at) / Fold change /veh LOC101060620 /// MAPK8IP1 (11723275_at) / RFU SPTSSB (11747773_x_at) / Fold change /veh SPTSSB (11747773_x_at) / RFU PRSS12 (11739890_at) / Fold change /veh PRSS12 (11739890_at) / RFU BIN1 (11741810_x_at) / Fold change /veh BIN1 (11741810_x_at) / RFU WNT11 (11732464_a_at) / Fold change /veh WNT11 (11732464_a_at) / RFU C10orf10 (11716521_a_at) / Fold change /veh C10orf10 (11716521_a_at) / RFU C5orf56 (11738089_at) / Fold change /veh C5orf56 (11738089_at) / RFU CYB561 (11721691_x_at) / Fold change /veh CYB561 (11721691_x_at) / RFU ANKRD19P (11752326_a_at) / Fold change /veh ANKRD19P (11752326_a_at) / RFU OR2T12 /// OR2T33 /// OR2T8 (11738714_s_at) / Fold change /veh OR2T12 /// OR2T33 /// OR2T8 (11738714_s_at) / RFU VCAN (11748164_a_at) / Fold change /veh VCAN (11748164_a_at) / RFU JSRP1 (11732532_at) / Fold change /veh JSRP1 (11732532_at) / RFU KRTAP10-11 (11738290_x_at) / Fold change /veh KRTAP10-11 (11738290_x_at) / RFU MYO3A (11730013_a_at) / Fold change /veh MYO3A (11730013_a_at) / RFU EBF3 (11725865_a_at) / Fold change /veh EBF3 (11725865_a_at) / RFU CAMK2N1 (11719241_x_at) / Fold change /veh CAMK2N1 (11719241_x_at) / RFU C5orf56 (11738088_a_at) / Fold change /veh C5orf56 (11738088_a_at) / RFU OLFML3 (11715873_a_at) / Fold change /veh OLFML3 (11715873_a_at) / RFU LOC100653217 /// NTM (11731650_a_at) / Fold change /veh LOC100653217 /// NTM (11731650_a_at) / RFU MAPK11 (11762145_a_at) / Fold change /veh MAPK11 (11762145_a_at) / RFU FIZ1 (11724087_x_at) / Fold change /veh FIZ1 (11724087_x_at) / RFU OASL (11726364_x_at) / Fold change /veh OASL (11726364_x_at) / RFU SOX15 (11748057_x_at) / Fold change /veh SOX15 (11748057_x_at) / RFU CD79A (11719716_a_at) / Fold change /veh CD79A (11719716_a_at) / RFU HIST1H1D (11736915_at) / Fold change /veh HIST1H1D (11736915_at) / RFU CASKIN2 (11723855_a_at) / Fold change /veh CASKIN2 (11723855_a_at) / RFU LOC730098 (11760151_x_at) / Fold change /veh LOC730098 (11760151_x_at) / RFU OR4N2 (11742367_at) / Fold change /veh OR4N2 (11742367_at) / RFU PRRT2 (11749266_a_at) / Fold change /veh PRRT2 (11749266_a_at) / RFU SNX32 (11753110_a_at) / Fold change /veh SNX32 (11753110_a_at) / RFU CDHR5 (11726645_a_at) / Fold change /veh CDHR5 (11726645_a_at) / RFU RCAN1 (11760418_a_at) / Fold change /veh RCAN1 (11760418_a_at) / RFU FAM167A (11723789_a_at) / Fold change /veh FAM167A (11723789_a_at) / RFU FAM26E (11764081_at) / Fold change /veh FAM26E (11764081_at) / RFU ISYNA1 (11749810_s_at) / Fold change /veh ISYNA1 (11749810_s_at) / RFU ACY1 (11761880_at) / Fold change /veh ACY1 (11761880_at) / RFU 11764098_at / Fold change /veh 11764098_at / RFU SAMD14 (11745864_x_at) / Fold change /veh SAMD14 (11745864_x_at) / RFU NPB (11741838_a_at) / Fold change /veh NPB (11741838_a_at) / RFU TMPRSS6 (11731388_a_at) / Fold change /veh TMPRSS6 (11731388_a_at) / RFU KRTAP10-2 (11738614_at) / Fold change /veh KRTAP10-2 (11738614_at) / RFU ARHGAP8 /// PRR5-ARHGAP8 (11727945_x_at) / Fold change /veh ARHGAP8 /// PRR5-ARHGAP8 (11727945_x_at) / RFU KRTAP5-7 /// NADSYN1 (11734609_at) / Fold change /veh KRTAP5-7 /// NADSYN1 (11734609_at) / RFU RASL12 (11751679_a_at) / Fold change /veh RASL12 (11751679_a_at) / RFU CDKN2B (11736163_a_at) / Fold change /veh CDKN2B (11736163_a_at) / RFU PRF1 (11729649_at) / Fold change /veh PRF1 (11729649_at) / RFU, ZNF638 /// ZNF638-IT1 / Fold change vs veh, ZNF638 /// ZNF638-IT1 / RFU, PANK3 / Fold change vs veh, PANK3 / RFU, SH3YL1 / Fold change vs veh, SH3YL1 / RFU, ZEB2 / Fold change vs veh, ZEB2 / RFU, NRIP1 / Fold change vs veh, NRIP1 / RFU, PTTG1IP / Fold change vs veh, PTTG1IP / RFU, CAPN2 / Fold change vs veh, CAPN2 / RFU, MED14 / Fold change vs veh, MED14 / RFU, SNORA58 / Fold change vs veh, SNORA58 / RFU, C1orf63 / Fold change vs veh, C1orf63 / RFU, LRRFIP1 / Fold change vs veh, LRRFIP1 / RFU, NDUFAF7 / Fold change vs veh, NDUFAF7 / RFU, SLC12A2 / Fold change vs veh, SLC12A2 / RFU, IBTK / Fold change vs veh, IBTK / RFU, ESF1 / Fold change vs veh, ESF1 / Fold change vs veh, TMEM50B / RFU, TAOK1 / Fold change vs veh, TAOK1 / RFU, ACBD3 / Fold change vs veh, ACBD3 / RFU, TMA16 / Fold change vs veh, TMA16 / RFU, RWDD3 / Fold change vs veh, RWDD3 / RFU, BCAT1 / Fold change vs veh, BCAT1 / RFU, EDEM3 / Fold change vs veh, EDEM3 / RFU, TMEM33 / Fold change vs veh, TMEM33 / RFU, WDR75 / Fold change vs veh, WDR75 / RFU, AHCTF1 / Fold change vs veh, AHCTF1 / RFU, TFRC / Fold change vs veh, TFRC / RFU, ZDHHC17 / Fold change vs veh, ZDHHC17 / RFU, NOM1 / Fold change vs veh, NOM1 / RFU, ARL8B / Fold change vs veh, ARL8B / RFU, ZBTB11 / Fold change vs veh, ZBTB11 / RFU, TAMM41 / Fold change vs veh, TAMM41 / RFU, KIAA1704 /// LOC100996395 / Fold change vs veh, KIAA1704 /// LOC100996395 / RFU, ING1 / Fold change vs veh, ING1 / RFU, TRMT61B / Fold change vs veh, TRMT61B / RFU, FUBP3 / Fold change vs veh, FUBP3 / RFU, TP53 / Fold change vs veh, TP53 / RFU, TNKS2 / Fold change vs veh, TNKS2 / RFU, ZFP14 / Fold change vs veh, ZFP14 / RFU, ACTR2 / Fold change vs veh, ACTR2 / RFU, PPP3R1 / Fold change vs veh, PPP3R1 / RFU, PIK3R1 / Fold change vs veh, PIK3R1 / RFU, HNRNPA1 / Fold change vs veh, HNRNPA1 / RFU, RNF170 / Fold change vs veh, RNF170 / RFU, ZNF28 / Fold change vs veh, ZNF28 / RFU, RNGTT / Fold change vs veh, RNGTT / RFU, OGT / Fold change vs veh, OGT / RFU, BRD1 / Fold change vs veh, BRD1 / RFU, MARS / Fold change vs veh, MARS / RFU, ZNF655 / Fold change vs veh, ZNF655 / RFU, FAHD1 / Fold change vs veh, FAHD1 / RFU, BDP1 / Fold change vs veh, BDP1 / RFU, LRRCC1 / Fold change vs veh, LRRCC1 / RFU, ARID1A / Fold change vs veh, ARID1A / RFU, ZNF146 / Fold change vs veh, ZNF146 / RFU, ZNF330 / Fold change vs veh, ZNF330 / RFU, GPN3 / Fold change vs veh, GPN3 / RFU, C9orf123 / Fold change vs veh, C9orf123 / RFU, N4BP2L2 / Fold change vs veh, N4BP2L2 / RFU, ARFIP1 / Fold change vs veh, ARFIP1 / RFU, FAM179B / Fold change vs veh, FAM179B / RFU, BCL10 / Fold change vs veh, BCL10 / RFU, UHRF1BP1L / Fold change vs veh, UHRF1BP1L / RFU, BET1 / Fold change vs veh, BET1 / RFU, CNOT2 / Fold change vs veh, CNOT2 / RFU, ZNF268 / Fold change vs veh, ZNF268 / Fold change vs veh, ZNF507 / RFU, DGCR2 / Fold change vs veh, DGCR2 / RFU, WDSUB1 / Fold change vs veh, WDSUB1 / Fold change vs veh, HSP90B1 /// MIR3652 / RFU, ADSS / Fold change vs veh, ADSS / RFU, GK / Fold change vs veh, GK / RFU, ZNF148 / Fold change vs veh, ZNF148 / RFU, TAF9 / Fold change vs veh, TAF9 / RFU, SLC1A5 / Fold change vs veh, SLC1A5 / RFU, SLMO2 / Fold change vs veh, SLMO2 / RFU, ABCC4 / Fold change vs veh, ABCC4 / RFU, LOC101060439 /// RAP1B / Fold change vs veh, LOC101060439 /// RAP1B / RFU, RFX7 / Fold change vs veh, RFX7 / RFU, GTPBP10 / Fold change vs veh, GTPBP10 / RFU, CNEP1R1 / Fold change vs veh, CNEP1R1 / RFU, BIVM-ERCC5 /// ERCC5 / Fold change vs veh, BIVM-ERCC5 /// ERCC5 / RFU, ILF3 / Fold change vs veh, ILF3 / RFU 11762660_at / Fold change /veh 11762660_at / RFU VCAN (11757783_s_at) / Fold change /veh VCAN (11757783_s_at) / RFU DDX43 (11728927_at) / Fold change /veh DDX43 (11728927_at) / RFU KRT8 (11758188_x_at) / Fold change /veh KRT8 (11758188_x_at) / RFU NKD1 (11759106_at) / Fold change /veh NKD1 (11759106_at) / RFU SRD5A1 (11742802_a_at) / Fold change /veh SRD5A1 (11742802_a_at) / RFU TPSAB1 /// TPSB2 (11721975_s_at) / Fold change /veh TPSAB1 /// TPSB2 (11721975_s_at) / RFU GSTM3 (11746129_a_at) / Fold change /veh GSTM3 (11746129_a_at) / RFU IL23R (11737362_x_at) / Fold change /veh IL23R (11737362_x_at) / RFU TMEM51 (11727254_a_at) / Fold change /veh TMEM51 (11727254_a_at) / RFU PIWIL2 (11732686_x_at) / Fold change /veh PIWIL2 (11732686_x_at) / RFU ORM1 (11744905_x_at) / Fold change /veh ORM1 (11744905_x_at) / RFU CCDC152 (11743942_at) / Fold change /veh CCDC152 (11743942_at) / RFU ECM1 (11717891_a_at) / Fold change /veh ECM1 (11717891_a_at) / RFU IL23R (11748794_a_at) / Fold change /veh IL23R (11748794_a_at) / RFU TNFAIP8L3 (11732012_x_at) / Fold change /veh TNFAIP8L3 (11732012_x_at) / RFU MBOAT4 (11741988_at) / Fold change /veh MBOAT4 (11741988_at) / RFU 11764193_at / Fold change /veh 11764193_at / RFU TMEM53 (11763286_at) / Fold change /veh TMEM53 (11763286_at) / RFU MAGEB2 (11727129_at) / Fold change /veh MAGEB2 (11727129_at) / RFU TMEM200A (11744735_a_at) / Fold change /veh TMEM200A (11744735_a_at) / RFU CCDC152 (11751479_a_at) / Fold change /veh CCDC152 (11751479_a_at) / RFU FAM211A (11726209_a_at) / Fold change /veh FAM211A (11726209_a_at) / RFU RGS16 (11746705_a_at) / Fold change /veh RGS16 (11746705_a_at) / RFU VCAN (11755009_s_at) / Fold change /veh VCAN (11755009_s_at) / RFU RHOB (11743442_s_at) / Fold change /veh RHOB (11743442_s_at) / RFU RGS16 (11720943_a_at) / Fold change /veh RGS16 (11720943_a_at) / RFU RGS16 (11720944_at) / Fold change /veh RGS16 (11720944_at) / RFU, VPS4B / Fold change vs veh, VPS4B / RFU, CREB1 / Fold change vs veh, CREB1 / RFU, DNAJC13 / Fold change vs veh, DNAJC13 / RFU, GNAQ / Fold change vs veh, GNAQ / RFU, CDK5R1 / Fold change vs veh, CDK5R1 / RFU, ZRANB3 / Fold change vs veh, ZRANB3 / RFU, CUL4A / Fold change vs veh, CUL4A / RFU, CCNY / Fold change vs veh, CCNY / RFU, UFL1 / Fold change vs veh, UFL1 / RFU, COG3 / Fold change vs veh, COG3 / RFU, DIAPH2 / Fold change vs veh, DIAPH2 / RFU, SKA2 / Fold change vs veh, SKA2 / RFU, AFF3 / Fold change vs veh, AFF3 / RFU, LMF1 / Fold change vs veh, LMF1 / RFU, IPO11 / Fold change vs veh, IPO11 / RFU, DFFB / Fold change vs veh, DFFB / RFU, FOXP1 / Fold change vs veh, FOXP1 / RFU, CARD8 / Fold change vs veh, CARD8 / RFU, STRN3 / Fold change vs veh, STRN3 / RFU, ADK / Fold change vs veh, ADK / RFU, RASSF2 / Fold change vs veh, RASSF2 / RFU, WIPF1 / Fold change vs veh, WIPF1 / RFU, LARP1B / Fold change vs veh, LARP1B / RFU, RASA1 / Fold change vs veh, RASA1 / RFU, RB1 / Fold change vs veh, RB1 / RFU, PPFIA1 / Fold change vs veh, PPFIA1 / RFU, MAT2A / Fold change vs veh, MAT2A / RFU, CCT5 / Fold change vs veh, CCT5 / RFU, WDR92 / Fold change vs veh, WDR92 / RFU, CUX1 / Fold change vs veh, CUX1 / RFU, TTC7A / Fold change vs veh, TTC7A / RFU, TMEM135 / Fold change vs veh, TMEM135 / RFU, DEPTOR / Fold change vs veh, DEPTOR / RFU, CPM / Fold change vs veh, CPM / RFU, DNAJB6 / Fold change vs veh, DNAJB6 / RFU, CACNA2D3 / Fold change vs veh, CACNA2D3 / RFU, DTX4 / Fold change vs veh, DTX4 / RFU, TFCP2 / Fold change vs veh, TFCP2 / RFU, GMCL1 /// GMCL1P1 / Fold change vs veh, GMCL1 /// GMCL1P1 / RFU, AEBP2 / Fold change vs veh, AEBP2 / RFU, SNHG1 /// SNORD22 /// SNORD25 /// SNORD26 /// SNORD27 /// SNORD28 /// SNORD29 /// SNORD31 / Fold change vs veh, SNHG1 /// SNORD22 /// SNORD25 /// SNORD26 /// SNORD27 /// SNORD28 /// SNORD29 /// SNORD31 / Fold change (Aza/veh), C12orf56 (ProbeSet 11735607_a_at) / Fold change (ACY-1035/veh), C12orf56 (ProbeSet 11735607_a_at) / Fold change (Aza/veh), FGFR1OP (ProbeSet 11751329_s_at) / Fold change (ACY-1035/veh), FGFR1OP (ProbeSet 11751329_s_at) / Fold change (Aza/veh), VPS36 (ProbeSet 11739960_a_at) / Fold change (ACY-1035/veh), VPS36 (ProbeSet 11739960_a_at) / RFU SYPL1 (11715823_x_at) / Fold change /veh SYPL1 (11715823_x_at) / RFU IGFBP7 (11715501_s_at) / Fold change /veh IGFBP7 (11715501_s_at) / RFU REEP3 (11722064_at) / Fold change /veh REEP3 (11722064_at) / RFU IGLL1 (11728026_x_at) / Fold change /veh IGLL1 (11728026_x_at): dose or concentration left out as unconfirmed. The settings on record: ProbeSet 11758440_s_at; LIST B.

For the molecule `Nc1ccc(-c2cccs2)cc1NC(=O)c1ccc2c(c1)cc(C1CC1)n2CCN1CCOCC1` [ACY-1035], the “Fold change vs veh, RFX7” value is given as 0.90.
